Here are results for 14 molecules from patent US4371523A, “Reducing the aggregation of insulin in solution” (The Regents of the University of California, priority 1980, dated 1983).

Entries after “also recorded” stand apart in the source; their conditions may differ.

T2 sequence (P01315 25-54 limits assumed): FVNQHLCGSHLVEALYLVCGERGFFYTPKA
T2 sequence (P01315 88-108 limits assumed): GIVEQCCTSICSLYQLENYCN

One series deals with T1, single component neutral pork zinc insulin (Sus scrofa, UniProt P01315).
T1 construct: single component, neutral, pork, zinc-insulin (U.500 regular Iletin II., Eli Lilly & Company); purchased Eli Lilly & Company U.500 regular Iletin II
T1 sequence (P01315 25-54 limits assumed): as the sequence (P01315 25-54 limits assumed) above
In words: Controlled shaking of zinc insulin solutions in test tubes, optical density at 600 nm. The format is physicochemical. Conditions: agent added to insulin solution at acid pH 3.3-3.5. The procedure:
In vitro testing of single component neutral pork zinc insulin was undertaken with a number of added agents. Solutions at about neutral pH and at acid pH were tested. In addition, some testing was also undertaken with Na insulin.
The tests were conducted using plastic tybes (5 ml test tubes, Sarstedt, sealed by plastic caps covered with paraffin) each containing 2 ml of the insulin solutions noted below. The tubes were continuously agitated in a metabolic shaking incubator (Dubnoff E.C.A. Co.) at 60 to 80 r.p.m. and 37° C. for periods up to sixteen days.
The zinc insulin solutions were prepared by appropriate dilutions of highly concentrated (500 U/ml) single component, neutral, pork, zinc-insulin (U.500 regular Iletin II., Eli Lilly & Company). The unbuffered diluting fluid contained glycerin, 16 mg/ml, and phenol, 2 mg/ml of distilled water (Eli Lilly & Company). […] Final insulin concentration in all solutions was 50 U/ml (2 mg/ml).
Insulin solutions with amino acid added were prepared by addition of the dry amino acids (Sigma Company) to the neutral zinc or sodium insulin solutions. Final concentration of the amino acid additives was 7 mg per ml of insulin solution. pH was adjusted, when necessary, to 7.5 for neutral insulin mixtures and to 3.3-3.5 for acid insulin mixtures.
Several non-amino carboxylic acids, i.e., lactic acid, acetic acid, and citric acid, were added under the same conditions of concentration and pH as described for the amino acids.
The various insulin solutions, both as made up without additives and with additives, were shaken as noted above for up to sixteen days, at which time the solutions were examined with an optical densitometer at a wave length 600 nm. The optical density (OD) of each solution was an indication of the amount of aggregation present after the shaking period. The higher the optical density, the greater the aggregation in that solution.
With `NC(=O)CC[C@H](N)C(=O)O` [Glutamine], the “Protective effect against insulin aggregation (in words)” value is reported as “no protective effect was noted”.

Turning to `CC(O)C(=O)O` (stereo not shown) [Lactic Acid], the “Protective effect against insulin aggregation (in words)” value was “do not prevent aggregation; also recorded: a comparable protective effect was not noted”.

Regarding `CC(C)C[C@H](N)C(=O)O` [Leucine], the “Protective effect against insulin aggregation (in words)” value is reported as “no protective effect was noted”.

Turning to `NCCCC[C@H](N)C(=O)O` [Lysine], the “Protective effect against insulin aggregation (in words)” value is “no protective effect was noted”.

As to `CSCC[C@H](N)C(=O)O` [Methionine], the “Protective effect against insulin aggregation (in words)” value was “no protective effect was noted”.

Consider `O=C(O)[C@@H]1CCCN1` [Proline], for which the “Protective effect against insulin aggregation (in words)” value is “no protective effect was noted”.

On to `N[C@@H](CO)C(=O)O` [Serine], for which the “Protective effect against insulin aggregation (in words)” value is recorded as “no protective effect was noted”.

`C[C@@H](O)[C@H](N)C(=O)O` [Threonine]: the “Protective effect against insulin aggregation (in words)” value is “no protective effect was noted”.

`N[C@@H](Cc1c[nH]c2ccccc12)C(=O)O` [Tryptophane]: the “Protective effect against insulin aggregation (in words)” value is recorded as “no protective effect was noted”.

As for `CC(C)[C@H](N)C(=O)O` [Valine], the “Protective effect against insulin aggregation (in words)” value was “no protective effect was noted”.

For `N[C@@H](CSSC[C@H](N)C(=O)O)C(=O)O` [cystine], the “Protective effect against insulin aggregation (in words)” value is recorded as “no protective effect was noted”.

With `Cl` [hydrochloric acid], the “Protective effect against insulin aggregation (in words)” value is “a comparable protective effect was not noted”.

Still in this series, the particulars now being: agent added to insulin solution at acid pH 3.3-3.5; listed as Aspartic acid.
Consider `N[C@@H](CC(=O)O)C(=O)O` [Aspartic Acid], for which the “Protective effect against insulin aggregation (in words)” value is given as “more effective than glutamic acid; also recorded: particularly effective in protecting insulin solutions from aggregation”.

The same series, now with this note: agent added to insulin solution at acid pH 3.3-3.5; listed as aspartic acid.
Consider `N[C@@H](CC(=O)O)C(=O)O` [Aspartic Acid], for which the “Protective effect against insulin aggregation (in words)” value is reported as “prevented the development of any appreciable aggregation throughout the entire experiment”.

Still in this series, the particulars now being: agent added to insulin solution at acid pH 3.3-3.5; listed as lactate.
As for `CC(O)C(=O)O` (stereo not shown) [Lactic Acid], the “Protective effect against insulin aggregation (in words)” value is “exacerbate aggregation”.

The same series, now with this note: agent added to insulin solution at neutral pH (about pH 7, pH 7.4).
Regarding `N[C@@H](CC(=O)O)C(=O)O` [Aspartic Acid], the “Protective effect against insulin aggregation (in words)” value is “do not offer any effective protection; also recorded: the protective effect of the agents are no longer apparent”.

Still in this series, the particulars now being: zinc insulin 50 U/ml, pH 3.3-3.5, shaken 16 days at 37° C., OD at 600 nm.
For the molecule `N[C@@H](CC(=O)O)C(=O)O` [Aspartic Acid], the “Optical Density ± 1 × SE” value came to 0.084 ± 0.009.

With `NCCCC[C@H](N)C(=O)O` [Lysine], the “Optical Density ± 1 × SE” value is reported as 0.35 ± 0.13.

The same series, now with this note: zinc insulin 50 U/ml, pH 7.4, shaken 16 days at 37° C., OD at 600 nm; higher OD = greater aggregation.
In the case of `N[C@@H](CC(=O)O)C(=O)O` [Aspartic Acid], the “Optical Density ± 1 × SE” value was 0.51 ± 0.078.

As to `NC(=O)CC[C@H](N)C(=O)O` [Glutamine], the “Optical Density ± 1 × SE” value stood at 0.68 ± 0.03.

For the molecule `CC(C)C[C@H](N)C(=O)O` [Leucine], the “Optical Density ± 1 × SE” value is recorded as 0.695 ± 0.03.

Take `NCCCC[C@H](N)C(=O)O` [Lysine]: the “Optical Density ± 1 × SE” value stood at 0.25 ± 0.08.

Consider `CSCC[C@H](N)C(=O)O` [Methionine], for which the “Optical Density ± 1 × SE” value worked out at 0.74 ± 0.22.

`O=C(O)[C@@H]1CCCN1` [Proline]: the “Optical Density ± 1 × SE” value came to 0.665 ± 0.21.

Regarding `N[C@@H](CO)C(=O)O` [Serine], the “Optical Density ± 1 × SE” value is recorded as 0.89 ± 0.02.

In the case of `C[C@@H](O)[C@H](N)C(=O)O` [Threonine], the “Optical Density ± 1 × SE” value was 0.76 ± 0.02.

In the case of `N[C@@H](Cc1c[nH]c2ccccc12)C(=O)O` [Tryptophane], the “Optical Density ± 1 × SE” value was determined as 0.585 ± 0.200.

Turning to `CC(C)[C@H](N)C(=O)O` [Valine], the “Optical Density ± 1 × SE” value is 0.64 ± 0.26.

A further series has as its target T2, pork sodium-insulin (Sus scrofa, UniProt P01315).
T2 construct: pork sodium-insulin crystals (U.1000 neutral sodium insulin special pork obtained from Eli Lilly & Company); purchased Eli Lilly & Company U.1000 neutral sodium insulin special pork
Put plainly: Controlled shaking of Na insulin solutions in test tubes, optical density at 600 nm. The format is physicochemical. Conditions: Na insulin 50 U/ml, pH 3.5, shaken at 37° C., OD at 600 nm. As for the experimental part: In vitro testing of single component neutral pork zinc insulin was undertaken with a number of added agents. Solutions at about neutral pH and at acid pH were tested. In addition, some testing was also undertaken with Na insulin. The tests were conducted using plastic tybes (5 ml test tubes, Sarstedt, sealed by plastic caps covered with paraffin) each containing 2 ml of the insulin solutions noted below. The tubes were continuously agitated in a metabolic shaking incubator (Dubnoff E.C.A. Co.) at 60 to 80 r.p.m. and 37° C. for periods up to sixteen days. The sodium insulin solutions were made by dissolving pork sodium-insulin crystals (U.1000 neutral sodium insulin special pork obtained from Eli Lilly & Company) in the same diluting fluid as utilized with the zinc insulin. The solutions were adjusted to neutral or acid pH as indicated above. Final insulin concentration in all solutions was 2 mg/ml (50 U/ml). Insulin solutions with amino acid added were prepared by addition of the dry amino acids (Sigma Company) to the neutral zinc or sodium insulin solutions. Final concentration of the amino acid additives was 7 mg per ml of insulin solution. pH was adjusted, when necessary, to 7.5 for neutral insulin mixtures and to 3.3-3.5 for acid insulin mixtures. The various insulin solutions, both as made up without additives and with additives, were shaken as noted above for up to sixteen days, at which time the solutions were examined with an optical densitometer at a wave length 600 nm. The optical density (OD) of each solution was an indication of the amount of aggregation present after the shaking period. The higher the optical density, the greater the aggregation in that solution.
With `N[C@@H](CC(=O)O)C(=O)O` [Aspartic Acid], the “Optical Density ± 1 × SE” value was 0.10 ± 0.01.

Regarding “Na Insulin: pork sodium-insulin crystals (U.1000 neutral sodium insulin special pork, Eli Lilly & Company) in solution, no agent added”, the “Optical Density ± 1 × SE” value is 0.128 ± 0.02.

The same series, now with this note: Na insulin 50 U/ml, pH 7.4, shaken at 37° C., OD at 600 nm.
Turning to “Na Insulin: pork sodium-insulin crystals (U.1000 neutral sodium insulin special pork, Eli Lilly & Company) in solution, no agent added”, the “Optical Density ± 1 × SE” value is 0.18 ± 0.02.

The same series, now with this note: acid pH.
For `N[C@@H](CC(=O)O)C(=O)O` [Aspartic Acid], the “Protective effect on Na insulin solutions (in words)” value is given as “some protective effect”.

The same series, now with this note: pH 3.3-3.5.
Take “Na Insulin: pork sodium-insulin crystals (U.1000 neutral sodium insulin special pork, Eli Lilly & Company) in solution, no agent added”: the “Aggregation of Na insulin (in words)” value is recorded as “less than at pH 7.4 but is nevertheless appreciable”.

The same series, now with this note: pH 7.4, by 16 days.
On to “Na Insulin: pork sodium-insulin crystals (U.1000 neutral sodium insulin special pork, Eli Lilly & Company) in solution, no agent added”, for which the “Aggregation of Na insulin (in words)” value was “also aggregates; also recorded: aggregation is less than that seen for neutral zinc insulin at the same pH”.
